Measured values published in US20150065423A1, “RAPID ACTING INJECTABLE FORMULATIONS” (Perosphere, Inc., priority 2013, published 2015).
≈ marks a conversion by molar mass, not a printed value.

What was measured:
[1] = Soluble concentration of nitroglycerin measured by HPLC; conditions: aqueous with cosolvent or surfactant or cyclodextrin
Description: The resultant suspension was centrifuged and the supernatant withdrawn to become the test article. […] The results are depicted in FIG. 1.

[2] = "it is believed"; cited from earlier work

**Q.** For `O=[N+]([O-])OCC(CO[N+](=O)[O-])O[N+](=O)[O-]` [nitroglycerin], which solubility ([1]; soluble concentration of nitroglycerin, in presence of 5% aqueous solution of Pluronic F127) is on record?
**A.** The solubility was about 3800 µg/mL.

**Q.** What about the solubility ([1]; soluble concentration of nitroglycerin, in presence of 5% aqueous solution of Tween 80) of the same compound?
**A.** Its solubility is about 4500 µg/mL.

**Q.** What about the solubility ([1]; thermodynamic from solid, final concentration of nitroglycerin (solubility limit)) of the same compound?
**A.** The solubility was about 1000 µg/mL (≈ 4.4 mM).

**Q.** And the solubility ([1]; thermodynamic from solid, soluble concentration of nitroglycerin, in presence of 20% aqueous solution of PEG3350)?
**A.** The solubility was 2000 µg/mL.

**Q.** What about the water solubility [2] of the same compound?
**A.** The water solubility was under 1000 µg/mL.
